These are literature values, as cited in patent US20090196889A1, “CONTROLLED ABSORPTION OF STATINS IN THE INTESTINE” (DEXCEL PHARMA TECHNOLOGIES LTD., priority 2004, published 2009).

The subject of data set [1] is plasma proteins, primarily albumin. Conditions: simvastatin and its active acid forms.
Data set [2] has as its target T1, HMG-CoA reductase (Homo sapiens, UniProt P04035).
T1 sequence (P04035 1-888): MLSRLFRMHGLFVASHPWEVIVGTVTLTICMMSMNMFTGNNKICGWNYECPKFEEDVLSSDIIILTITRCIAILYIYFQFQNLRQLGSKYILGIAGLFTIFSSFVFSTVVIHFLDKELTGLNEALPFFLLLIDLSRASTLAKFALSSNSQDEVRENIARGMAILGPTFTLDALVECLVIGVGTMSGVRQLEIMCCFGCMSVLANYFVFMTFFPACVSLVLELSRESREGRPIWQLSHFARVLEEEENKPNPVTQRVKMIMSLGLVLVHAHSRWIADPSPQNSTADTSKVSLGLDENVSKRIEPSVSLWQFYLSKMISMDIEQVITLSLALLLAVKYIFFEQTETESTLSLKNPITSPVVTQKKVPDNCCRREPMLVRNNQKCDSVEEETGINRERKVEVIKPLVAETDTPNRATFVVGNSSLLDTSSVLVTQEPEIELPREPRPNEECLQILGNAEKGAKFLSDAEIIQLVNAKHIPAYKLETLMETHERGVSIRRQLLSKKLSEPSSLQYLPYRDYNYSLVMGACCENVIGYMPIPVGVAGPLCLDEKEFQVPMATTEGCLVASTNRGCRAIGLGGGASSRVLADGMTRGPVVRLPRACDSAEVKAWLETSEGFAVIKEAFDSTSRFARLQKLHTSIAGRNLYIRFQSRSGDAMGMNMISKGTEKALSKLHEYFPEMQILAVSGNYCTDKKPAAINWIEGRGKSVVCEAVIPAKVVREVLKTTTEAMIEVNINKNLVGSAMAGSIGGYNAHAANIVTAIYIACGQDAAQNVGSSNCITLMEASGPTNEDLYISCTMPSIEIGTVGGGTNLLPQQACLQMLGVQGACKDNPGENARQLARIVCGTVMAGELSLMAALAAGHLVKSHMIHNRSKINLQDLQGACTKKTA
The note with it: relative to the beta-hydroxy acid form considered as the drug.

For `CCC(C)(C)C(=O)O[C@H]1C[C@@H](C)C=C2C=C[C@H](C)[C@H](CC[C@@H]3C[C@@H](O)CC(=O)O3)[C@H]21` [simvastatin], the “bound to plasma proteins, primarily to albumin” value in data set [1] is reported as “more than 95%”. Take `CCC(C)(C)C(=O)OC1CC(C)(O)C=C2C=CC(C)C(CCC3CC(O)CC(=O)O3)C21` (stereo not drawn) [6-beta-hydroxy simvastatin]: in data set [2], the “HMG-CoA reductase activity retained” value is roughly 50%.

Regarding `CCC(C)(C)C(=O)OC1CC(CO)C=C2C=CC(C)C(CCC3CC(O)CC(=O)O3)C21` (stereo not drawn) [6-beta-hydroxymethyl], in data set [2], the “HMG-CoA reductase activity retained” value is on record as “approximately 40%”.
